How the values were obtained:
[1] = Inhibition of human synovial group2 sPLA2 at 10 uM by liquid scintillation counting
[2] = Inhibition of bee venom group3 sPLA2 at 10 uM by liquid scintillation counting
[3] = Inhibition of rat air pouch group2 sPLA2 at 10 uM by liquid scintillation counting
[4] = Inhibition of Naja naja venom group1 sPLA2 at 10 uM by liquid scintillation counting

Row | SMILES | inhibition [1] | IC50 [2] | inhibition [3] | IC50 [4]
1 | CC1=CCC[C@@H]2[C@@](C)(CCC3=CC[C@H](C4=CC(=O)O[C@H]4O)OC3)[C@@H](C)CC[C@@]12C [cacospongionolide E] | 96.7% | 94.8 µM | 65.1% | 
2 | CC1=C(CC/C(C)=C/CCC2=CC[C@H](C3=CC(=O)O[C@H]3O)O[C@H]2O)C(C)(C)CCC1 [5-Hydroxy-4-{(R)-6-hydroxy-5-[(E)-4-methyl-6-(2,6,6-trimethyl-cyclohex-1-enyl)-hex-3-enyl]-3,6-dihydro-2H-pyran-2-yl}-5H-furan-2-one] | 93.2% | 62.5 µM | 38.4% | 17 µM
3 | C=C1CCC[C@H]2[C@](C)(CCC3=CCC(C4=CC(=O)OC4O)OC3)[C@H](C)CC[C@]12C (stereo partly drawn) [CACOSPONGIONOLIDE B] | 86.7% | 35.4 µM | 36.9% | 
4 | C[C@H]1CC[C@@]23C[C@]2(C)CCC[C@@H]3[C@@]1(C)CCC1=CC[C@H](C2=CC(=O)O[C@H]2O)OC1 [cacospongionolide] | 90.7% |  | 21.8% | 3.5 µM

Source: BindingDB's records for doi:10.1021/np980122t (Istituto Per La Chimica Di Molecole Di Interesse Biologico …, 1998)
